The results in this text go back to PubChem BioAssay (NCI).

Among the test systems are 786-0 renal; NCI-H23 lung; BT-549 breast; HT29 colon; CAKI-1 renal; IGROV1 ovarian; HCT-15 colon; T-47D breast; A549 NSCLC; NCI-H522 lung; SK-MEL-5 melanoma; SW-620 colon; HOP-92 NSCLC; SF-268 CNS; TK-10 renal; HS 578T breast; SK-MEL-2 melanoma; DU-145 prostate; SNB-75 CNS; HCC-2998 colon.
Common to all, as to assay: inhibition of tumour cell growth, NCI panel, 48 h

Molecules are shown by their SMILES.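 Growth conditions: 96-well plates. Treatment: test compound, 48 hours, 5 concentrations. Analysis: linear interpolation between bracketing concentrations; unreached endpoints set to highest concentration. TGI marks complete inhibition of growth.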

As to `COc1cc(=O)c2c(O)c3c(O)oc(C)cc3c(OC)c2c1`, the TGI in the assay on 786-0 renal is 86.7 µM; in the assay with NCI-H23 lung, 69.8 µM; in the assay with BT-549 breast, over 100 µM; with HT29 colon, 40.7 µM; with CAKI-1 renal it was 97.5 µM; in the assay with IGROV1 ovarian it was 70.2 µM. Besides, the TGI is 86.8 µM in the assay with HCT-15 colon; 90.8 µM in the assay with T-47D breast; 87.7 µM in the assay with A549 NSCLC; over 100 µM in the assay with NCI-H522 lung; 64.5 µM with SK-MEL-5 melanoma; over 100 µM in the assay with SW-620 colon. Besides, the TGI is 42.4 µM in the assay with HOP-92 NSCLC; over 100 µM in the assay with SF-268 CNS; 64.9 µM in the assay on TK-10 renal; over 100 µM in the assay on HS 578T breast; 98.9 µM with SK-MEL-2 melanoma; over 100 µM with DU-145 prostate.

As for `O=C(O)CSC(CC1(c2ccc(Cl)cc2)NC(=O)CS1)c1ccc(Cl)cc1` (stereo not drawn), the TGI in the assay with 786-0 renal, with NCI-H23 lung, in the assay on BT-549 breast, with HT29 colon, in the assay on CAKI-1 renal and in the assay with IGROV1 ovarian was over 100 µM in each case. Further, the TGI in the assay on HCT-15 colon, in the assay on T-47D breast, in the assay on A549 NSCLC, with NCI-H522 lung, with SK-MEL-5 melanoma and in the assay on SW-620 colon was over 100 µM throughout. Moreover, the TGI was 87.6 µM with HOP-92 NSCLC; over 100 µM in the assay on SF-268 CNS; over 100 µM with TK-10 renal; over 100 µM in the assay on HS 578T breast; over 100 µM with SK-MEL-2 melanoma; over 100 µM in the assay with SNB-75 CNS. The same molecule showed a TGI in the assay on DU-145 prostate of over 100 µM.

Regarding `N#Cc1cnc(-n2[nH]c3c(c2=O)CCCC3)[nH]c1=O`, the TGI in the assay on 786-0 renal, in the assay on NCI-H23 lung, with BT-549 breast, with HT29 colon, in the assay on CAKI-1 renal and with IGROV1 ovarian was over 100 µM in each case. In addition, the TGI in the assay with HCT-15 colon, in the assay on T-47D breast, with A549 NSCLC, in the assay on NCI-H522 lung, with SK-MEL-5 melanoma and in the assay with SW-620 colon was over 100 µM throughout. Besides, the TGI was over 100 µM with HOP-92 NSCLC; over 100 µM in the assay on SF-268 CNS; over 100 µM in the assay with TK-10 renal; over 100 µM with HS 578T breast; over 100 µM in the assay on SK-MEL-2 melanoma; 55.9 µM in the assay with SNB-75 CNS. In addition, the TGI in the assay with DU-145 prostate is over 100 µM.

As to `O=C(NC(=S)Nc1ccc2c(c1)Sc1ccccc1O2)c1ccc([N+](=O)[O-])cc1`, the TGI in the assay with 786-0 renal, in the assay with NCI-H23 lung, with BT-549 breast, with HT29 colon, in the assay on CAKI-1 renal and with IGROV1 ovarian was over 100 µM each time. Further, the TGI with HCT-15 colon, in the assay with T-47D breast, with A549 NSCLC, in the assay with NCI-H522 lung, with SK-MEL-5 melanoma and in the assay on SW-620 colon was over 100 µM throughout. Besides, the TGI in the assay on HOP-92 NSCLC, with SF-268 CNS, with TK-10 renal, with HS 578T breast, in the assay on SK-MEL-2 melanoma and with SNB-75 CNS was over 100 µM each time. The same molecule had a TGI in the assay on DU-145 prostate of over 100 µM.

Consider `Oc1ccc2c(c1)CCc1c-2n(CCN2CCOCC2)c2ccc(O)cc12`, for which the TGI with 786-0 renal was over 100 µM; with NCI-H23 lung, 90.3 µM; in the assay on BT-549 breast, over 100 µM; in the assay with CAKI-1 renal, over 100 µM; in the assay with IGROV1 ovarian it was 60.9 µM; in the assay on HCT-15 colon it was over 100 µM. Further, the TGI in the assay with T-47D breast is over 100 µM; in the assay on SK-MEL-5 melanoma it was 39 µM; in the assay with SW-620 colon it was over 100 µM; in the assay with SF-268 CNS, over 100 µM; with TK-10 renal, over 100 µM; in the assay on HS 578T breast it was over 100 µM. Further, the TGI was 70.9 µM with SK-MEL-2 melanoma, 78.1 µM in the assay with SNB-75 CNS and over 100 µM with DU-145 prostate.

On to `COc1ccc(N=C2S/C(=N\C(=Nc3ccccc3)SCc3ccccc3)N(c3ccccc3)C2=Nc2ccc(OC)cc2)cc1`, for which the TGI in the assay with 786-0 renal, in the assay on NCI-H23 lung, in the assay with BT-549 breast, with HT29 colon, in the assay on IGROV1 ovarian and in the assay with HCT-15 colon was over 100 µM throughout. Also, the TGI with T-47D breast, with A549 NSCLC, in the assay with SK-MEL-5 melanoma, in the assay with SW-620 colon, with HOP-92 NSCLC and with TK-10 renal was over 100 µM each time. Further, the TGI with HS 578T breast, with HCC-2998 colon, with SK-MEL-2 melanoma and in the assay on SNB-75 CNS was over 100 µM in each case.

For the molecule `S=C(NNC1=NCCCCN1)Nc1ccc(Cl)cc1`, the TGI with 786-0 renal is over 100 µM; in the assay with NCI-H23 lung it was over 100 µM; in the assay on BT-549 breast, over 100 µM; with HT29 colon it was over 100 µM; in the assay with CAKI-1 renal, 0.0151 µM; in the assay on IGROV1 ovarian it was over 100 µM. Also, the TGI in the assay on HCT-15 colon is over 100 µM; in the assay on T-47D breast, over 100 µM; in the assay with A549 NSCLC it was over 100 µM; in the assay with NCI-H522 lung, 42.3 µM; in the assay on SK-MEL-5 melanoma, 20.5 µM; in the assay with SW-620 colon, over 100 µM. For the same molecule, the TGI in the assay on HOP-92 NSCLC, in the assay with SF-268 CNS, in the assay with TK-10 renal, with HS 578T breast, with HCC-2998 colon and with SK-MEL-2 melanoma was over 100 µM throughout. In the assay with SNB-75 CNS, this molecule gave a TGI of over 100 µM.

As to `c1cnn(C23C4C5C6C4C2C6C53)c1` (stereo not drawn), the TGI in the assay on 786-0 renal, in the assay with NCI-H23 lung, with BT-549 breast, in the assay on HT29 colon, in the assay with IGROV1 ovarian and with HCT-15 colon was over 100 µM in each case. Also, the TGI with T-47D breast, in the assay on A549 NSCLC, in the assay with NCI-H522 lung, in the assay with SK-MEL-5 melanoma, in the assay with SW-620 colon and in the assay with SF-268 CNS was over 100 µM each time. The TGI in the assay with TK-10 renal, in the assay with HS 578T breast, with HCC-2998 colon, in the assay with SK-MEL-2 melanoma, in the assay on SNB-75 CNS and in the assay with DU-145 prostate was over 100 µM each time.
